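Dose response: 5 concentrations. Exposure: 48 h. Format: 96-well plates. Endpoint: linear interpolation; highest concentration if not reached. Here, GI50 denotes the concentration required for 50% inhibition of growth.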 Active and inactive are the calls of the source. Cut-off read from the data, not from the text of the source: active = GI50 up to about 1.1 µM and inactive = higher.

Common to all, as to experiment: NCI-60 cell line screen, 48 h
Test [1] concerns A549.
For test [2], the system named is SK-MEL-28.
Test [3] relates to UACC-62.
Test [4] concerns SNB-75.
Test [5] concerns UACC-257.
For test [6], the system named is OVCAR-3.
Test [7] deals with SK-MEL-5.
For test [8], the system named is Malme-3M.
The subject of test [9] is IGROV-1.
Test [10] relates to EKVX.
Test [11] concerns CCRF-CEM.
Test [12] has as its system SF-295.
The test system of test [13] is TK-10.
Test [14] deals with NCI-H522.
Test [15] concerns 786-0.
In test [16] the test system is SNB-19.
In test [17] the test system is A498.

For the compound `CNC(N)NC`, the GI50 in test [1], in test [2], in test [3], in test [4], in test [5] and in test [6] was > 100 µM (inactive) throughout. In addition, the GI50 in test [7], in test [8], in [9], in test [10], in test [11] and in [12] was > 100 µM (inactive) throughout. Further, the GI50 in test [13], in test [14], in test [15], in test [16] and in test [17] was > 100 µM (inactive) each time.

`Cn1cnnc1Sc1c([N+](=O)[O-])ncn1C`: the GI50 was > 100 µM (inactive) in [1]; 36.9 µM (inactive) in test [2]; > 100 µM (inactive) in [3]; > 100 µM (inactive) in test [4]; > 100 µM (inactive) in test [5]; > 100 µM (inactive) in [6]. Also, the GI50 in [7] is > 100 µM (inactive); in test [8], 16.4 µM (inactive); in test [9], > 100 µM (inactive); in [10], > 100 µM (inactive); in test [11] it was 29.4 µM (inactive); in test [12] it was > 100 µM (inactive). The GI50 was > 100 µM (inactive) in [13]; 12.6 µM (inactive) in [14]; > 100 µM (inactive) in test [15]; > 100 µM (inactive) in test [16]; > 100 µM (inactive) in [17].

For the compound `NC(=O)c1cccc([N+](=O)[O-])c1`, the GI50 in [1], in [2], in test [3], in [4], in test [5] and in test [6] was > 100 µM (inactive) throughout. The GI50 in test [7], in test [8], in test [9], in test [10], in test [11] and in test [12] was > 100 µM (inactive) in each case. The GI50 in [13], in test [14], in test [15], in test [16] and in [17] was > 100 µM (inactive) in each case.

In the case of `C/C1=N\[N-]C(=O)c2ccccc2C(=O)N/N=C(\C)c2cccc1n2.O=[N+]([O-])[O-].[Zn+2]`, the GI50 in [1] was > 100 µM (inactive); in [2], > 100 µM (inactive); in test [3], > 100 µM (inactive); in test [4], 19.5 µM (inactive); in test [5] it was > 100 µM (inactive); in test [6] it was > 100 µM (inactive). Further, the GI50 in [7], in test [8], in test [9], in test [10], in test [11] and in test [12] was > 100 µM (inactive) each time. The GI50 in [13], in test [14], in test [15], in test [16] and in test [17] was > 100 µM (inactive) in each case.

On to `COc1ccccc1NC(=O)CC(=O)n1nc(C)c(/N=N/c2ccccc2F)c1C`, for which the GI50 is 98.4 µM (inactive) in test [1]; > 100 µM (inactive) in test [2]; > 100 µM (inactive) in [3]; 9.46 µM (inactive) in [4]; > 100 µM (inactive) in test [5]; > 100 µM (inactive) in test [6]. The GI50 was > 100 µM (inactive) in [7]; > 10 µM (inactive) in test [8]; > 100 µM (inactive) in [9]; > 100 µM (inactive) in test [10]; > 10 µM (inactive) in test [11]; > 52 µM (inactive) in [12]. In addition, the GI50 was > 100 µM (inactive) in test [13]; > 100 µM (inactive) in test [14]; 76.6 µM (inactive) in test [15]; > 76 µM (inactive) in [16]; > 100 µM (inactive) in test [17].

With `CSc1ccc2c(cc1=O)C(NC(=O)c1ccccc1)CCc1cc(O)c(O)c(O)c1-2` (stereo not drawn), the GI50 is 30.5 µM (inactive) in [1]; 24.5 µM (inactive) in [2]; 5.05 µM (inactive) in test [3]; 2.91 µM (inactive) in [4]; 15.3 µM (inactive) in test [5]; 2.51 µM (inactive) in test [6]. The GI50 is 2.61 µM (inactive) in [7]; 7.14 µM (inactive) in test [8]; 22 µM (inactive) in test [9]; 6.22 µM (inactive) in [10]; 6.73 µM (inactive) in test [11]; 4.22 µM (inactive) in [12]. Further, the GI50 is 52.8 µM (inactive) in test [13]; 17.1 µM (inactive) in test [14]; 29.4 µM (inactive) in test [15]; 5.69 µM (inactive) in test [16]; 22.3 µM (inactive) in [17].

Turning to `COc1cc2c(cc1OC)C(CC(=O)NN=C(C)C)NCC2` (stereo not drawn), the GI50 in test [1], in [2], in [3], in [4], in test [5] and in [6] was > 100 µM (inactive) in each case. For the same compound, the GI50 in test [7], in test [8], in test [9], in test [10], in test [11] and in test [12] was > 100 µM (inactive) throughout. Moreover, the GI50 in test [13], in test [14], in test [15], in test [16] and in test [17] was > 100 µM (inactive) in each case.

As for `CCCCCCCCCC1CC(=O)OC23CCCC(=O)C12O3` (stereo not drawn), the GI50 is > 100 µM (inactive) in test [1]; > 100 µM (inactive) in test [2]; 80 µM (inactive) in test [3]; > 100 µM (inactive) in test [4]; > 100 µM (inactive) in [5]; > 100 µM (inactive) in [6]. Besides, the GI50 in test [7] is 74.5 µM (inactive); in test [8] it was > 100 µM (inactive); in test [9], > 100 µM (inactive); in test [10], > 100 µM (inactive); in test [11], > 100 µM (inactive); in test [12], > 100 µM (inactive). The GI50 was > 100 µM (inactive) in [13]; 94.6 µM (inactive) in [14]; > 100 µM (inactive) in test [15]; > 100 µM (inactive) in test [16]; 71.9 µM (inactive) in test [17].

As to `CC1=C2C(=O)C(C)(C)C=C2C(=O)[C@](C)(O)C12CC2` [DEHYDROILLUDIN M], the GI50 in test [1] is > 1 µM (active); in test [2] it was > 1 µM (active); in [3], 0.586 µM (active); in test [4] it was > 1 µM (active); in test [5], 0.745 µM (active); in [6] it was > 1 µM (active). In addition, the GI50 is 0.296 µM (active) in [7]; 0.634 µM (active) in test [8]; > 1 µM (active) in test [9]; > 1 µM (active) in [10]; > 1 µM (active) in [11]; 0.585 µM (active) in test [12]. For the same compound, the GI50 in test [13] is > 1 µM (active); in [14] it was 0.245 µM (active); in test [15], 0.537 µM (active); in test [16], > 1 µM (active); in [17], > 1 µM (active).

For the origin of these results see ChEMBL document CHEMBL1201862, “PubChem BioAssay data set” (2004).
